Results taken from patent US20220282217A1, “COMPOSITIONS AND METHODS FOR PREPARING T CELL COMPOSITIONS AND USES THEREOF” (priority 2019, published 2022).
Where two headings read alike, the source gives them in different places. Where a SMILES comes first, the peptide text is derived from it.

Biological target: HLA-A02.01 (Homo sapiens, UniProt P04439, D140Y/D185E/D98H/E176V/E277Q/G131W/G231S/I119V/I121R/I166T/I218V/L300P/L318F/N151K/N90K/P208A/P217A/Q86G/Q94H/R138H/R169H/T345S)
Assay: Class I MHC peptide binding affinity (displacement of radiolabeled reference peptide)
Description: In brief, MHCI complexes were prepared and bound to radiolabeled reference peptides. Peptides were incubated at varying concentrations with these complexes for 2 days, and the amount of remaining radiolabeled peptide bound to […] was measured using size exclusion gel-filtration.

[1] = allele A02.01, read-out: Observed Affinity (IC50, (nM))
[2] = Observed Affinity (IC50, (nM)), allele A02.01

With `CC[C@H](C)[C@H](NC(=O)[C@@H](NC(=O)[C@H](CO)NC(=O)[C@H](Cc1ccccc1)NC(=O)[C@H](Cc1ccccc1)NC(=O)[C@@H](N)Cc1ccccc1)C(C)C)C(=O)N[C@@H](Cc1ccccc1)C(=O)N[C@@H](CO)C(=O)N[C@H](C(=O)O)[C@@H](C)O` (H-FFFSVIFST-OH; N-terminus and C-terminus assumed) the IC50 [1] was 4560 nM.

With `CSCC[C@H](NC(=O)[C@H](Cc1c[nH]cn1)NC(=O)[C@@H](NC(=O)[C@H](CC(C)C)NC(=O)[C@@H](NC(=O)[C@@H]1CCCN1C(=O)[C@H](C)NC(=O)[C@H](CC(C)C)NC(=O)[C@H](C)N)[C@@H](C)O)[C@@H](C)O)C(=O)N[C@@H](CC(C)C)C(=O)O` (H-ALAPTLTHML-OH; N-terminus and C-terminus assumed) the IC50 [1] was 39 nM.

`CSCC[C@H](N)C(=O)N[C@@H](C)C(=O)N[C@@H](CC(C)C)C(=O)N[C@@H](CC(N)=O)C(=O)N[C@@H](CO)C(=O)N[C@@H](CCC(=O)O)C(=O)N[C@@H](C)C(=O)N[C@@H](CC(C)C)C(=O)N[C@@H](CO)C(=O)N[C@H](C(=O)O)C(C)C` gave an IC50 [1] of 129 nM.

`CC[C@H](C)[C@H](NC(=O)[C@H](CO)NC(=O)[C@H](CC(C)C)NC(=O)CN)C(=O)N[C@@H](CO)C(=O)N[C@@H](CS)C(=O)N[C@H](C(=O)N[C@H](C(=O)N[C@@H](CC(C)C)C(=O)O)[C@@H](C)O)[C@@H](C)O` (H-GLSISCTTL-OH; N-terminus and C-terminus assumed) gave an IC50 [1] of 114 nM.

`CC[C@H](C)[C@H](N)C(=O)N[C@@H](CC(C)C)C(=O)N[C@@H](CC(C)C)C(=O)N1CCC[C@H]1C(=O)N[C@@H](CCC(=O)O)C(=O)N[C@@H](CC(=O)O)C(=O)N[C@H](C(=O)N1CCC[C@H]1C(=O)N1CCC[C@H]1C(=O)N[C@@H](CC(C)C)C(=O)O)[C@@H](C)O` (H-ILLPEDTPPL-OH; N-terminus and C-terminus assumed) gave an IC50 [1] of 6.7 nM.

For `CC[C@H](C)[C@H](NC(=O)[C@@H](NC(=O)[C@@H](NC(=O)[C@H](CC(C)C)NC(=O)[C@@H](NC(=O)[C@@H]1CCCN1C(=O)[C@H](CCCNC(=N)N)NC(=O)[C@H](CCC(N)=O)NC(=O)[C@@H](N)CC(N)=O)[C@@H](C)CC)[C@@H](C)O)[C@@H](C)CC)C(=O)O` (H-NQRPILTII-OH; N-terminus and C-terminus assumed), the IC50 [1] was 9610 nM.

For `CC(C)C[C@H](NC(=O)[C@H](C)N)C(=O)N[C@@H](Cc1c[nH]c2ccccc12)C(=O)N[C@@H](CCC(=O)O)C(=O)N[C@@H](CS)C(=O)N[C@@H](CO)C(=O)N[C@@H](CC(C)C)C(=O)N1CCC[C@H]1C(=O)N[C@@H](CCC(N)=O)C(=O)N[C@@H](C)C(=O)O` (H-ALWECSLPQA-OH; N-terminus and C-terminus assumed), the IC50 [1] was 9 nM.

Compound `CC[C@H](C)[C@H](N)C(=O)N[C@@H](CCSC)C(=O)N[C@@H](CO)C(=O)N[C@@H](CC(C)C)C(=O)N[C@@H](Cc1c[nH]c2ccccc12)C(=O)NCC(=O)N[C@@H](CC(C)C)C(=O)N[C@H](C(=O)N[C@@H](CO)C(=O)O)C(C)C` (H-IMSLWGLVS-OH) has an IC50 [1] of 7320 nM.

For `CC(C)C[C@H](NC(=O)[C@H](CC(C)C)NC(=O)[C@H](CC(C)C)NC(=O)[C@H](CC(=O)O)NC(=O)[C@H](CC(N)=O)NC(=O)[C@H](CC(C)C)NC(=O)[C@@H]1CCCN1C(=O)[C@@H](NC(=O)[C@@H](NC(=O)[C@@H](N)CC(N)=O)C(C)C)C(C)C)C(=O)O` (H-NVVPLNDLLL-OH; N-terminus and C-terminus assumed), the IC50 [1] was 4190 nM.

With `CC[C@H](C)[C@H](N)C(=O)N[C@@H](CC(C)C)C(=O)N[C@@H](CCSC)C(=O)N[C@@H](CCC(=O)O)C(=O)N[C@@H](CC(C)C)C(=O)N[C@@H](CCSC)C(=O)N[C@@H](C)C(=O)NCC(=O)NCC(=O)N[C@@H](CC(=O)O)C(=O)O` (H-ILMELMAGGD-OH; N-terminus and C-terminus assumed) the IC50 [1] was 3450 nM.

With `CSCC[C@H](NC(=O)[C@H](CCC(=O)O)NC(=O)[C@H](CC(C)C)NC(=O)[C@H](CC(C)C)NC(=O)[C@H](CC(C)C)NC(=O)[C@H](CC(=O)O)NC(=O)[C@H](CC(N)=O)NC(=O)[C@H](CC(C)C)NC(=O)[C@@H]1CCCN1)C(=O)N[C@@H](CC(C)C)C(=O)O` (H-PLNDLLLEML-OH; N-terminus and C-terminus assumed) the IC50 [1] was 12000 nM.

For `CC(C)C[C@H](NC(=O)[C@H](CO)NC(=O)[C@H](CC(N)=O)NC(=O)[C@H](CS)NC(=O)[C@H](CCC(=O)O)NC(=O)[C@H](Cc1c[nH]cn1)NC(=O)[C@H](CC(C)C)NC(=O)[C@@H](NC(=O)[C@H](CCC(N)=O)NC(=O)[C@@H](N)CC(C)C)C(C)C)C(=O)O`, the IC50 [1] was 4720 nM.

Work on `CC[C@H](C)[C@H](NC(=O)[C@H](CC(C)C)NC(=O)[C@@H]1CCCN1C(=O)[C@H](Cc1ccccc1)NC(=O)[C@H](CC(C)C)NC(=O)[C@H](CCC(=O)O)NC(=O)[C@@H]1CCCN1C(=O)CNC(=O)[C@@H](N)CCCCN)C(=O)O` (H-KGPELFPLI-OH) yielded an IC50 [1] of 101 nM.

`CC[C@H](C)[C@H](NC(=O)[C@@H]1CCCN1C(=O)[C@H](CCCNC(=N)N)NC(=O)[C@H](CCCNC(=N)N)NC(=O)[C@H](CC(N)=O)NC(=O)[C@H](CCSC)NC(=O)[C@@H](N)CO)C(=O)N[C@@H](CC(C)C)C(=O)N[C@H](C(=O)O)[C@@H](C)O` gave an IC50 [1] of 3840 nM.

In the case of `CC(C)C[C@H](NC(=O)[C@H](C)NC(=O)[C@@H](NC(=O)[C@@H]1CCCN1C(=O)[C@@H](NC(=O)[C@H](CS)NC(=O)[C@H](CO)NC(=O)[C@H](CO)NC(=O)[C@H](CC(C)C)NC(=O)[C@@H](N)CCCNC(=N)N)C(C)C)C(C)C)C(=O)O` [RLSSCVPVAL] (H-RLSSCVPVAL-OH; N-terminus and C-terminus assumed), the IC50 [1] is reported as 54.2 nM.

`CC(C)[C@H](NC(=O)[C@H](Cc1c[nH]cn1)NC(=O)[C@@H](NC(=O)[C@H](CCC(=O)O)NC(=O)[C@H](Cc1ccccc1)NC(=O)[C@H](CO)NC(=O)[C@@H](N)CC(N)=O)C(C)C)C(=O)N[C@@H](CS)C(=O)N[C@@H](C)C(=O)O` (H-NSFEVHVCA-OH; N-terminus and C-terminus assumed) showed an IC50 [1] of 503 nM.

`CC(C)C[C@H](NC(=O)[C@H](Cc1c[nH]cn1)NC(=O)[C@H](Cc1c[nH]c2ccccc12)NC(=O)[C@H](CC(C)C)NC(=O)[C@@H](N)CCCNC(=N)N)C(=O)N[C@@H](CC(C)C)C(=O)N[C@@H](CC(C)C)C(=O)N[C@@H](CCC(N)=O)C(=O)N[C@H](C(=O)N[C@H](C(=O)O)[C@@H](C)O)C(C)C` (H-RLWHLLLQVT-OH; N-terminus and C-terminus assumed) showed an IC50 [1] of 50.9 nM.

`CSCC[C@H](NC(=O)[C@@H](N)Cc1ccc(O)cc1)C(=O)N[C@@H](C)C(=O)N[C@@H](CC(N)=O)C(=O)NCC(=O)N[C@@H](CO)C(=O)N[C@@H](CC(C)C)C(=O)N[C@@H](CC(C)C)C(=O)N[C@@H](CC(N)=O)C(=O)O` (H-YMANGSLLN-OH; N-terminus and C-terminus assumed) was tested, and the IC50 (BTK C481S peptide, HLA Allele A02.01, read-out: Affinity) was 4000 nM and the IC50 [1] was 4440 nM.

`CC[C@H](C)[C@H](NC(=O)[C@@H](N)CC(C)C)C(=O)N[C@H](C(=O)N[C@@H](CO)C(=O)N[C@@H](CCCNC(=N)N)C(=O)N[C@H](C(=O)N[C@@H](CC(C)C)C(=O)N[C@@H](CC(C)C)C(=O)N[C@@H](CC(C)C)C(=O)O)[C@@H](C)O)C(C)C` showed an IC50 [1] of 173 nM.

In the case of `CC(C)C[C@H](NC(=O)[C@H](CS)NC(=O)[C@H](Cc1c[nH]c2ccccc12)NC(=O)[C@H](CC(C)C)NC(=O)[C@H](CO)NC(=O)[C@H](CO)NC(=O)[C@H](CCCNC(=N)N)NC(=O)[C@H](CCC(N)=O)NC(=O)[C@H](CC(C)C)NC(=O)[C@@H](N)[C@@H](C)O)C(=O)O` (H-TLQRSSLWCL-OH; N-terminus and C-terminus assumed), the IC50 [1] is reported as 118 nM.

For `CSCC[C@H](NC(=O)[C@H](CCC(=O)O)NC(=O)[C@H](CC(C)C)NC(=O)[C@H](CC(C)C)NC(=O)[C@H](CC(C)C)NC(=O)[C@H](CC(=O)O)NC(=O)[C@H](CO)NC(=O)[C@H](CC(C)C)NC(=O)[C@@H]1CCCN1)C(=O)N[C@@H](CC(C)C)C(=O)O` (H-PLSDLLLEML-OH; N-terminus and C-terminus assumed), the IC50 [1] was 6470 nM.

Compound `CC[C@H](C)[C@H](NC(=O)[C@H](CC(C)C)NC(=O)[C@H](CCC(N)=O)NC(=O)[C@@H](NC(=O)[C@@H](NC(=O)[C@@H](N)CO)[C@@H](C)O)C(C)C)C(=O)N[C@@H](CCSC)C(=O)N[C@@H](CCC(N)=O)C(=O)N[C@@H](CC(C)C)C(=O)O` (H-STVQLIMQL-OH; N-terminus and C-terminus assumed) has a Kd of 7.26 µM and an IC50 [2] of 8540 nM.

`CC[C@H](C)[C@H](NC(=O)[C@H](C)N)C(=O)N[C@@H](CCC(N)=O)C(=O)N1CCC[C@H]1C(=O)N[C@H](C(=O)N[C@@H](CC(C)C)C(=O)N[C@@H](Cc1c[nH]c2ccccc12)C(=O)N[C@H](C(=O)N[C@H](C(=O)O)[C@@H](C)O)[C@@H](C)O)C(C)C` (H-AIQPVLWTT-OH; N-terminus and C-terminus assumed) was tested, and the IC50 [1] was 8.1 nM.

In the case of `CC[C@H](C)[C@H](N)C(=O)N[C@H](C(=O)N[C@H](C(=O)N[C@@H](CCC(=O)O)C(=O)N[C@@H](Cc1ccccc1)C(=O)N[C@@H](CCSC)C(=O)N[C@H](C(=O)N[C@@H](Cc1ccc(O)cc1)C(=O)NCC(=O)O)[C@@H](C)O)[C@@H](C)CC)[C@@H](C)CC` (H-IIIEFMTYG-OH; N-terminus and C-terminus assumed), the IC50 [2] is reported as 779 nM.

Work on `CC[C@H](C)[C@H](NC(=O)[C@H](Cc1ccc(O)cc1)NC(=O)[C@H](CCC(=O)O)NC(=O)CNC(=O)[C@H](CO)NC(=O)[C@H](Cc1ccccc1)NC(=O)[C@H](C)N)C(=O)N1CCC[C@H]1C(=O)N[C@H](C(=O)N[C@H](C(=O)O)C(C)C)[C@@H](C)O` (H-AFSGEYIPTV-OH; N-terminus and C-terminus assumed) yielded an IC50 [1] of 781 nM.

In the case of `CC[C@H](C)[C@H](NC(=O)[C@H](CCCCN)NC(=O)[C@H](Cc1ccc(O)cc1)NC(=O)[C@@H](NC(=O)[C@@H](NC(=O)[C@H](CC(=O)O)NC(=O)[C@H](CO)NC(=O)[C@H](CCSC)NC(=O)[C@@H](N)C(C)C)[C@@H](C)O)[C@@H](C)O)C(=O)O` (H-VMSDTTYKI-OH; N-terminus and C-terminus assumed), the IC50 [2] is reported as 19.6 nM.
